# PMC10685318, “Trans-cyclosulfamidate mannose-configured cyclitol allows isoform-dependent inhibition of GH47 α-D-mannosidases through a bump–hole strategy” (Chemical Science, 2023)
# How the values were obtained:
# [1] = tested on: GH47 model enzyme from Caulobacter K31 strain; assay: Crystal soaks with WT GH47; assay type: binding
# [2] = target: T1, MAN2A1 (Homo sapiens, UniProt Q16706); assay: 4-MU-α-man activity assay in overexpressed cell lysates; assay type: biochemical
# T1 construct: expressed in transfected cells
# T1 sequence (Q16706 1-1144): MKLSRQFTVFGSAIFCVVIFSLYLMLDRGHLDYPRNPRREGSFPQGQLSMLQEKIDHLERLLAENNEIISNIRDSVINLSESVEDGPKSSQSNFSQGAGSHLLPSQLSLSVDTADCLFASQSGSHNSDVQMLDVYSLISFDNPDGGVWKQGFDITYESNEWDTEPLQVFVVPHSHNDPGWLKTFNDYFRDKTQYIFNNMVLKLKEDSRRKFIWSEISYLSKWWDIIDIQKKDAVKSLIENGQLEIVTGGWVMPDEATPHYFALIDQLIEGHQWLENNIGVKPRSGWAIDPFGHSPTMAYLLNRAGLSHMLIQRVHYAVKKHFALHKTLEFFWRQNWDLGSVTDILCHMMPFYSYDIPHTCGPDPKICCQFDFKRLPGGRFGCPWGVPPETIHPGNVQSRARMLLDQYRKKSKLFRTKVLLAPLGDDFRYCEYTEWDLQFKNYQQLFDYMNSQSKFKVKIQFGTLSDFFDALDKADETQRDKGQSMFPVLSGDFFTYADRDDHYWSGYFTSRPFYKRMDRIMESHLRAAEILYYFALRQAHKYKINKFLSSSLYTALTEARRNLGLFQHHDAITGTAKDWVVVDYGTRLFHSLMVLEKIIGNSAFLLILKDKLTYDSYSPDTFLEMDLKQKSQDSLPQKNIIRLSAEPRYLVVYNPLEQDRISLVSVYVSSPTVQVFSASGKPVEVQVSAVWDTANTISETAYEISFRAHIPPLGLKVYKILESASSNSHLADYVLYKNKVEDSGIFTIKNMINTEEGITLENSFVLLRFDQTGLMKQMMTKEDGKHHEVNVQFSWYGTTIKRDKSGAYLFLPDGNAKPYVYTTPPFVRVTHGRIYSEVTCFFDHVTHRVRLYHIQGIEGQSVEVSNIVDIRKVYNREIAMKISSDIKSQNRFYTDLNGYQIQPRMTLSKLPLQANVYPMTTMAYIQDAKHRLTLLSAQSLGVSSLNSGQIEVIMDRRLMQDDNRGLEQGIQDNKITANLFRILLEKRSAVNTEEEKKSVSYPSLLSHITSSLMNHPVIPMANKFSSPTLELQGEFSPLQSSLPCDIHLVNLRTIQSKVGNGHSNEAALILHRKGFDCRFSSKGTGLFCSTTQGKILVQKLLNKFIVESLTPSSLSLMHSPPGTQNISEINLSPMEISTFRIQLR
# Excerpt: Finally, selectivity versus a panel of related exo-mannosidases was investigated. We first tested inhibition against all five human GH38 retaining α-mannosidases in overexpressed cell lysates using 4-methylumbelliferyl-α-mannoside (4-MU-α-man): Golgi mannosidase II and IIx (MAN2A1 and MAN2A2), cytosolic MAN2C1 and lysosomal MAN2B1 and MAN2B2. This α-mannosidase family follows a different conformational itinerary than GH47: ^0S2 → B2,5 → ^1S5.[35] […] Of note, the presence of cobalt has been associated with conformational changes in the active site of some GH38 α-mannosidases, which might affect the binding interaction with inhibitors.[36] Nevertheless, additional research is required to explore which specific metal ion is present in the MAN2C1 active site in its in vivo state.
# Trans-Cyclosulfamidate Cyclitols Males et al.
# 2.3 GH38 α-mannosidases and GH2 β-mannosidase inhibition studies
# All chemicals were of analytical grade and purchased from Sigma-Aldrich unless stated otherwise.
# Optimal stability of cell homogenates and enzyme working stocks was ensured by preparation and temporary storage on ice. Cell homogenates were prepared and used on the same day. Protein concentrations were quantified using the Pierce BCA Protein Assay Kit (ThermoFisher). Protein samples were measured in clear flat-bottom polystyrene 96 well microplates (Greiner Bio-One) using a EMax Plus Microplate Reader (Molecular Devices). Activity measurements of human GH38 α-mannosidases and bacterial β-mannosidase BtMan2A were performed in black flat-bottom polystyrene 96 wells microplates (Greiner Bio-One) and total fluorescence was measured using a Perkin Elmer LS-55 fluorescence spectrometer at wavelengths λex = 366 and λem = 445 nm, with the signal optimized for medium gain readings. The fluorescence values of each enzyme sample were corrected for the background signal of a blank sample containing no enzyme. In the case of IC50 determinations, values were normalized against a control sample containing enzyme without added inhibitor. For a single experiment, three separate curves were fitted from a technical triplicate by setting the inhibitor concentration in µM against the normalized response using GraphPad Prism 8.4.2 software. The Prism functions ‘[inhibitor] versus normalized response’ and ‘[inhibitor] versus normalized response -- variable slope’ were compared for each curve using the Akaike’s Information Criterion method to select the preferred model. Reported IC50 values are mean ± standard deviation from a biological […]
# General cell culture protocol
# HEK293T cells were grown to confluency at 37 °C under a 5% CO2 atmosphere in Dulbecco’s Modified Eagle’s Medium (DMEM) with a high glucose concentration (Capricorn Scientific, DMEM-HPXA) that was supplemented with 10% fetal calf serum, 0.1% (w/v) penicillin/streptomycin and 1% (v/v) Glutamax. Cells were passaged twice a week to new round polystyrene (PS) tissue culture dishes (Sarstedt) by detachment off the former culture plates by careful pipetting. To prepare cell pellets for activity measurements, plates were grown to confluency and harvested in phosphate buffered saline (PBS). After centrifugation at 1500 rpm for 5 min, the remaining PBS was aspirated and the cells were resuspended in fresh PBS. The concentration of the resulting suspension was then counted using a TC20 automated cell counter (BioRad). Aliquots were centrifuged at 2000 rpm for 5 min and the resulting cell pellets were stored at -80 °C until further use.
# 4-MU activity assay protocol for human GH38 α-mannosidases
# HEK293T cells stably overexpressing human GH38 α-mannosidases MAN2A1, MAN2A2, MAN2B1, MAN2B2 and MAN2C1 were prepared as previously described[11] and were kindly donated by Dr. C. L.
# Kuo. Homogenates were prepared by sonicating cell pellets (Sonics VibraCell, 5x1 s with 30 s interval at 20% amplitude) in 150 mM McIlvain buffer of pH 5.5 (MAN2A1, MAN2A2), pH 4.5 (MAN2B1, MAN2B2) or pH 6.7 (MAN2C1) containing either 2 mM ZnCl2 (MAN2A1, MAN2A2, MAN2B1, MAN2B2) […]
structure (smiles),measurement,setting,value
"O=S1(=O)N[C@@H]2[C@@H](O)[C@@H](O)[C@H](O)[C@@H](CO)[C@H]2O1 [compound 6, 1,6-trans-manno-cyclosulfamidate]",binding in crystal soaks,[1],no binding
same,activity when the buffer was enriched with CoCl2,[2]; CoCl2,no activity
same,IC50,[2]; Zn2+,> 1000 µM
